According to patent US12012415B2, “Compositions and methods for the diagnosis, treatment and prevention of neoplastic and neurological disorders” (AscentGene, Inc., priority 2018, dated 2024):

How the values were obtained:
[1] = test system: Aβ1-42-induced cognitive impairments; assay: Open field test in Aβ1-42 Alzheimer's disease rat model; assay type: in vivo, rats; conditions: for number of entries into the center zone: 1 mg/kg i.v. daily 14 days, vs Aβ1-42 group; for total distance / traveling speed: open field, between the four groups
Protocol: Aβ1-42 (Sigma-Aldrich, St. Louis, MO, USA;) was dissolved in double-distilled water at the concentration of 5 μg/μl, and incubated at 37° C. for one week before surgery. The rats were randomly divided into four groups as Sham (n=8), Sham+AG-1601 (n=8), Aβ1-42 (n=8) and Aβ1-42+AG-1601 (n=8). The Alzheimer's disease rat models were established by intracerebroventricular (i.c.v.) injection of Aβ1-42 aggregates. The animals were anesthetized with intraperitoneal injection of pentobarbital sodium (50 mg/kg) and placed in a stereotaxic apparatus (Narishige, Japan). The head skin of the rat was opened and two small holes were drilled on both sides of skull following the coordinates: 0.8 mm posterior to bregma, +1.4 mm lateral to sagittal suture, 4.0 mm beneath the surface of brain. Aβ1-42 (2.0 μl per side) was injected bilaterally into the lateral ventricles through micro-syringe. The needle was taken out after 5 minutes of the injection to ensure the aggregates were infused completely. Rats in the Sham group underwent the same operational process, but same volumes of double-distilled water were injected instead of Aβ1-42. After surgery, all rats were injected with penicillin (100,000 U) in the hindquarter muscle to prevent infection. The animals of Sham+AG-1601 and Aβ1-42+AG-1601 groups were intravenous injection with AG-1601 (1 mg/kg), while the same volume vehicle was implemented for the other groups every day for 14 days after one week of the postoperative recovery.
The open field test was carried out to evaluate locomotor activity and exploratory behavior. This test was conducted as described previously with little modifications (Sugita et al., 2015). The open field test consists of a circular apparatus (80 cm in diameter, 30 cm high). The circular apparatus was divided into the center zone (30 cm in diameter in the middle of the arena) and the concentric outer circle zone. Rats were placed individually in the outer circle of the apparatus and allowed to explore freely for 5 min. The path of each rat was tracked by a camera-driven tracker system (Ethovision2.0, Noldus, Wagenigen, Netherlands). The number of entries into the center zone, the total distance and the traveling speed during the testing were analyzed.

C6 glioma = assay: C6 intracranial glioma rat model; assay type: in vivo, rats
Protocol: SD male rate were intracranially injected with DMEM medium in 10 μl (sham and small plus AG-1601), and C6 cell at 1×10^6 in 10 μl (glioma and glioma plus AG-1601). C6 cells, a type of murine glioma cell lines, were injected into the right striatum in rats to induce glioma formation. C6 cells were cultured in DMEM containing 10% FBS. C6 cells were suspended in DMEM to implant in rats. Rats injected DMEM containing 10% FBS were grouped as Sham. Tumor formation continued for 7 days, followed by AG1601 was intravenous injected once a day for 6 days. Physical findings included: body weight/2d; effects on synaptic plasticity; electrophysiological tests of LTP and CA3-CA1; mechanism of the study (BDNF/TrkB signaling pathway); Western blot; Synaptic plasticity: BDNF/TrkB/PI3K/Akt/NMDA/PSD95/SYP; Tumor suppression: BDNF/TrkB/RAS/ERK/Bcl-2/Bax; Histology and immunohistochemical analysis; HE staining and immunohistochemistry staining; characterization of brain tumor (localization, size, and regions).

## C=CC1=C(C)c2cc3[nH]c(cc4nc(cc5[nH]c(cc1n2)c(C)c5C=C)C(C)=C4CCC(=O)O)c(CCC(=O)NCCCc1ccccc1)c3C [AG-1601, 3-(2,8,13,18-tetramethyl-3-(3-oxo-3-((3-phenylpropyl)amino)propyl)-12,17-divinylporphyrin-7-yl)propanoic acid]
[1]
  number of entries into the center zone: increased dramatically
  total distance: no significant effect
  traveling speed: no significant effect
[1]; listed as AG-1061
  number of entries into the center zone: increased significantly
  total distance: no significant difference
  traveling speed: no significant difference
C6 glioma; Glioma vs Glioma+AG1601, 2 weeks
  body weights: significant difference was found between them
C6 glioma; Glioma+AG1601 vs Glioma group
  tumor volumes: reduced
  tumor weights: reduced
C6 glioma; Sham vs Sham+AG1601, 2 weeks
  body weights: without significant difference
C6 glioma; glioma rats treated vs without treatment
  survival time: longer
C6 glioma; i.v. once a day for 6 days
  glioma growth: could suppress glioma growth
C6 glioma; rat model
  efficacy on C6 xenograft tumor: shows efficacy
